The assay deals with Plasmodium berghei. As to the kind of experiment: Luciferase/luciferin-expressing antifolate-resistant parasites were used to infect a culture of HepG2 cells that were pre-incubated with compounds. Infected hepatocytes emit light due to the luciferase reaction. Assay results are presented as the percent inhibition of light emission compared to control. […]. It is filed as functional. The following applies: sporozoite; for IC90: read-out: LUCIFERASE INFECTION ASSAY - IC90.

Where [1] appears, read: read-out: LUCIFERASE INFECTION ASSAY - IC50.

Where only a bound is given, the exact number is not on record here.

Results on 34 compounds are retold here after ChEMBL document CHEMBL4483862, “Open-source discovery of chemical leads for next-generation chemoprotective antimalarials” (2018).

The term IC50 denotes the midpoint of a concentration-inhibition curve. In general, IC90 refers to the concentration at which the effect reaches the 90% level.

Regarding `Cc1csc(NC(=O)c2cc(C3CC3)n[nH]2)n1`, the IC90 is over 10 µM. In addition, where the note is “FFLUC_HILL_SLOPE 1.65, FFLUC_R_SQUARED 0.902, read-out: LUCIFERASE INFECTION ASSAY - IC50”, the IC50 was over 10 µM.

`CCCn1c(C)cc(C(=O)CN(C)S(=O)(=O)c2ccc(F)cc2)c1C`: the IC90 was over 10 µM. Besides, the IC50 (HEPG2TOX_HILL_SLOPE 0.529, HEPG2TOX_R_SQUARED 0.126, read-out: LUCIFERASE INFECTION ASSAY - IC50) is over 10 µM.

`CC(C)[C@@H](CO)Nc1nccn2c(-c3cccc(OC(F)(F)F)c3)cnc12`: the IC90 was 6.18 µM. For the same compound, the IC50 (HEPG2TOX_HILL_SLOPE 1.77, HEPG2TOX_R_SQUARED 0.938, PBLUC_HILL_SLOPE 1.99, PBLUC_R_SQUARED 0.624, read-out: LUCIFERASE INFECTION ASSAY - IC50) was found to be 2.05 µM.

With `CCOc1ccc(-n2c(SC(C)C(=O)c3ccc(C(C)C)cc3C(C)C)nnc2-c2c[nH]c3ccccc23)cc1` (stereo not drawn), the IC90 was over 10 µM. Besides, under “FFLUC_HILL_SLOPE 12.2, FFLUC_R_SQUARED 0.489, PBLUC_HILL_SLOPE 1.92, PBLUC_R_SQUARED 0.281, read-out: LUCIFERASE INFECTION ASSAY - IC50”, the IC50 is 5.8 µM.

For `Cc1nn2c(=O)c(Cc3cccc(Cl)c3)c(C)[nH]c2c1-c1ccccc1`, the IC90 was 2.81 µM. For the same compound, the IC50 (FFLUC_HILL_SLOPE 22.4, FFLUC_R_SQUARED 0.436, HEPG2TOX_HILL_SLOPE 3.67, HEPG2TOX_R_SQUARED 0.334, PBLUC_HILL_SLOPE 3.2, PBLUC_R_SQUARED 0.748, read-out: LUCIFERASE INFECTION ASSAY - IC50) amounted to 1.41 µM.

Turning to `CCCCCc1nnc(NC(=O)c2nccnc2N)s1`, the IC90 worked out at 4.56 µM. In addition, the IC50 (HEPG2TOX_HILL_SLOPE 7.97, HEPG2TOX_R_SQUARED 0.296, PBLUC_HILL_SLOPE 11.4, PBLUC_R_SQUARED 0.31, read-out: LUCIFERASE INFECTION ASSAY - IC50) is 3.76 µM.

Take `Cc1noc(C)c1COc1ccccc1C(=O)N1CCN(S(=O)(=O)c2cccc(C(F)(F)F)c2)CC1`: the IC90 was over 10 µM. The IC50 under setting [1] is over 10 µM.

As to `CN(CC(=O)Nc1ccc(Oc2ccccc2)cc1)c1c(N)n(Cc2ccccc2)c(=O)[nH]c1=O`, the IC90 is over 10 µM. Also, the IC50 (PBLUC_HILL_SLOPE 10.4, PBLUC_R_SQUARED 0.215, read-out: LUCIFERASE INFECTION ASSAY - IC50) turned out to be 9.74 µM.

In the case of `CC(C)c1ccc(NC(=O)c2csc(Cc3c(Cl)cccc3Cl)n2)cc1`, the IC90 is 8.08 µM. The IC50 (HEPG2TOX_HILL_SLOPE 1.62, HEPG2TOX_R_SQUARED 0.849, PBLUC_HILL_SLOPE 1.9, PBLUC_R_SQUARED 0.639, read-out: LUCIFERASE INFECTION ASSAY - IC50) was determined as 2.55 µM.

Regarding `CCOC(=O)C1=C(CSc2nc3ccccc3c(=O)n2-c2ccc(OC(F)F)cc2)NC(=O)NC1C` (stereo not drawn), the IC90 is over 10 µM. Moreover, under “HEPG2TOX_HILL_SLOPE 1.17, HEPG2TOX_R_SQUARED 0.429, PBLUC_HILL_SLOPE 8.23, PBLUC_R_SQUARED 0.327, read-out: LUCIFERASE INFECTION ASSAY - IC50”, the IC50 came to 8.35 µM.

For the compound `O=C1C=C(c2ccc(Cl)cc2)C(=O)N1Nc1ccc(F)cc1`, the IC90 was over 10.4 µM. Moreover, the IC50 (HEPG2TOX_HILL_SLOPE 7.85, HEPG2TOX_R_SQUARED 0.837, PBLUC_HILL_SLOPE 13.2, PBLUC_R_SQUARED 0.145, read-out: LUCIFERASE INFECTION ASSAY - IC50) worked out at 10.2 µM.

As for `CC1Cc2cc(C3=NNC(=NC4CC4)SC3)ccc2N1S(C)(=O)=O` (stereo not drawn), the IC90 stood at 1.38 µM. For the same compound, for the setting “FFLUC_HILL_SLOPE 2.25, FFLUC_R_SQUARED 0.383, HEPG2TOX_HILL_SLOPE 1.12, HEPG2TOX_R_SQUARED 0.483, PBLUC_HILL_SLOPE 1.74, PBLUC_R_SQUARED 0.672, read-out: LUCIFERASE INFECTION ASSAY - IC50”, the half-maximal inhibitory concentration (IC50) was 0.197 µM.

`Cc1onc(-c2c(Cl)cccc2Cl)c1CO/N=C(\C#N)c1c(Cl)cccc1Cl`: the IC90 was over 7.25 µM. The IC50 under setting [1] is over 7.25 µM.

`C[C@H](Nc1ccc(C(F)(F)F)cc1[N+](=O)[O-])C(=O)Nc1nc2ccccc2[nH]1`: the concentration for an effect of 90% (IC90) came to 6.29 µM. The IC50 (PBLUC_HILL_SLOPE 74.9, PBLUC_R_SQUARED 0.587, read-out: LUCIFERASE INFECTION ASSAY - IC50) was determined as 6.11 µM.

In the case of `Cc1cc(NC(=O)CCc2ccc(C)c(Cl)c2)n(C)n1`, the IC90 is over 10 µM. Moreover, the IC50 under setting [1] is over 10 µM.

Regarding `CN(C)c1cccc(Nc2nccn3c(-c4ccc5c(c4)OCO5)cnc23)c1`, the IC90 is 2.84 µM. The IC50 under setting [1] stood at 0.365 µM.

`CCCC1(CCC)NC(=O)N(CC(=O)/N=c2\sc3ccccc3n2C)C1=O`: the IC90 is over 10 µM. Moreover, the IC50 (HEPG2TOX_HILL_SLOPE 1.17, HEPG2TOX_R_SQUARED 0.854, PBLUC_HILL_SLOPE 1.78, PBLUC_R_SQUARED 0.281, read-out: LUCIFERASE INFECTION ASSAY - IC50) turned out to be 4.54 µM.

Turning to `CC(=O)Nc1ccc(OCC(=O)NC(c2ccc(C)cc2)c2cccs2)cc1` (stereo not drawn), the IC90 was over 10 µM. Besides, the IC50 (PBLUC_HILL_SLOPE 2.22, PBLUC_R_SQUARED 0.0478, read-out: LUCIFERASE INFECTION ASSAY - IC50) is over 10 µM.

On to `Cc1nc(NC(=O)CSc2nnc(-c3c[nH]c4ccccc34)n2C2CC2)c(Cl)cc1Cl`, for which the IC90 was over 10 µM. Under “HEPG2TOX_HILL_SLOPE 15.3, 2.10, HEPG2TOX_R_SQUARED 0.288, 0.992, PBLUC_HILL_SLOPE 2.43, PBLUC_R_SQUARED 0.583, read-out: LUCIFERASE INFECTION ASSAY - IC50”, the IC50 worked out at 4.48 µM.

As to `Fc1ccc(-c2nc3ccnc(Nc4ccccc4)c3[nH]2)cc1F`, the concentration for an effect of 90% (IC90) is over 10 µM. Moreover, the IC50 (PBLUC_HILL_SLOPE 2.79, PBLUC_R_SQUARED 0.219, read-out: LUCIFERASE INFECTION ASSAY - IC50) stood at 5.41 µM.

As for `COc1cc(-c2cc(-c3ccc(F)cc3)cnc2N)ccc1O`, the IC90 was 4.78 µM. Also, the IC50 (PBLUC_HILL_SLOPE 9.98, PBLUC_R_SQUARED 0.631, read-out: LUCIFERASE INFECTION ASSAY - IC50) stood at 3.84 µM.

With `Cn1c(-c2c(-c3ccccc3)n[nH]c2-c2ccc([N+](=O)[O-])cc2)nc2ccccc21`, the IC90 was found to be 9.52 µM. Besides, the IC50 (PBLUC_HILL_SLOPE 3.22, PBLUC_R_SQUARED 0.201, read-out: LUCIFERASE INFECTION ASSAY - IC50) stood at 4.81 µM.

For `O=C(Nc1nc(-c2ccc3c(c2)CCCC3)cs1)c1cnccn1`, the IC90 was over 10 µM. The IC50 under setting [1] was over 10 µM.

Turning to `COc1cc(OC)c(C2CCN(C(=O)c3nn(-c4ccc(F)cc4)c4c3CCCC4)CC2)c(OC)c1`, the concentration for an effect of 90% (IC90) is over 10 µM. For the same compound, under “FFLUC_HILL_SLOPE 11.8, FFLUC_R_SQUARED 0.584, PBLUC_HILL_SLOPE 10.3, PBLUC_R_SQUARED 0.0293, read-out: LUCIFERASE INFECTION ASSAY - IC50”, the IC50 was over 10 µM.

In the case of `O=C(Nc1ccc(OC(F)(F)F)cc1)Nc1ccc(Sc2ccccc2)nc1Sc1ccccc1`, the IC90 turned out to be 1.18 µM. Moreover, the IC50 (HEPG2TOX_HILL_SLOPE 8.48, HEPG2TOX_R_SQUARED 0.476, PBLUC_HILL_SLOPE 1.76, PBLUC_R_SQUARED 0.832, read-out: LUCIFERASE INFECTION ASSAY - IC50) is 0.339 µM.

`Cc1ccc(C(=O)Nc2nc(-c3ccccn3)cs2)cc1S(=O)(=O)N1CCCCC1`: the IC90 stood at 8.14 µM. For the same compound, the IC50 (HEPG2TOX_HILL_SLOPE 16.5, HEPG2TOX_R_SQUARED 0.73, PBLUC_HILL_SLOPE 17.5, PBLUC_R_SQUARED 0.446, read-out: LUCIFERASE INFECTION ASSAY - IC50) came to 7.18 µM.

In the case of `Cc1nn(CC(=O)Nc2cc(C(F)(F)F)ccc2Oc2ccc(Br)cc2)c(=O)c(C#N)c1C`, the IC90 was over 10 µM. The IC50 under setting [1] was over 10 µM.

For the compound `CCC(C)NC(=O)c1c(NC(=O)c2ccc(F)c(Cl)c2)nc2ccc(C)cn12` (stereo not drawn), the IC90 was 5.96 µM. The IC50 (HEPG2TOX_HILL_SLOPE 2.61, HEPG2TOX_R_SQUARED 0.962, PBLUC_HILL_SLOPE 2.74, PBLUC_R_SQUARED 0.471, read-out: LUCIFERASE INFECTION ASSAY - IC50) was found to be 2.67 µM.

As for `CCc1cc2c(=O)n(NC(=S)Nc3ccc(OC)cc3)cnc2s1`, the IC90 is over 10 µM. Besides, under setting [1], the IC50 was over 10 µM.

Consider `CCn1c2ccc(C(=O)N/N=C/c3cn(-c4ccccc4)nc3-c3ccc(OC(F)F)cc3)cc2c[n+]1C`, for which the IC90 was over 10 µM. Besides, the IC50 (PBLUC_HILL_SLOPE 9.98, PBLUC_R_SQUARED 0.817, read-out: LUCIFERASE INFECTION ASSAY - IC50) worked out at 8.1 µM.

Consider `COc1cccc(CNC(=O)Nc2ccc3nc(Cc4ccccc4)nn3c2)c1`, for which the IC90 was over 10 µM. For the same compound, for the setting “HEPG2TOX_HILL_SLOPE 13.6, HEPG2TOX_R_SQUARED 0.936, PBLUC_HILL_SLOPE 1.17, PBLUC_R_SQUARED 0.525, read-out: LUCIFERASE INFECTION ASSAY - IC50”, the IC50 came to 2.14 µM.

With `CSc1sc(C(=O)NC(=O)Nc2cccc(C(F)(F)F)c2)cc1C#N`, the IC90 was over 8.56 µM. Besides, the IC50 (FFLUC_HILL_SLOPE 12.6, FFLUC_R_SQUARED 0.0423, read-out: LUCIFERASE INFECTION ASSAY - IC50) was over 8.56 µM.

In the case of `Cc1cc(-c2ccccc2)nc2c1/C(=N\O)CC(C)(C)C2`, the IC90 was over 11.8 µM. Also, for the setting “HEPG2TOX_HILL_SLOPE 8.55, HEPG2TOX_R_SQUARED 0.808, PBLUC_HILL_SLOPE 3.52, PBLUC_R_SQUARED 0.12, read-out: LUCIFERASE INFECTION ASSAY - IC50”, the IC50 worked out at 8.87 µM.

As for `Cc1ccccc1-c1noc(-c2cc(-c3cccs3)[nH]n2)n1`, the IC90 was over 10 µM. Also, the IC50 (HEPG2TOX_HILL_SLOPE 8.85, HEPG2TOX_R_SQUARED 0.0358, read-out: LUCIFERASE INFECTION ASSAY - IC50) was over 10 µM.
